The values that follow come from patent US9120820B2, “Fluorescent molecular probes for use in assays that measure test compound competitive binding with SAM-utilizing proteins” (CAYMAN CHEMICAL COMPANY, INCORPORATED, priority 2011, dated 2015).

Assay [1] addresses T1, SET7/9 (Homo sapiens, UniProt Q8WTS6).
T1 construct: purchased Cayman 10320
T1 sequence (Q8WTS6 1-366): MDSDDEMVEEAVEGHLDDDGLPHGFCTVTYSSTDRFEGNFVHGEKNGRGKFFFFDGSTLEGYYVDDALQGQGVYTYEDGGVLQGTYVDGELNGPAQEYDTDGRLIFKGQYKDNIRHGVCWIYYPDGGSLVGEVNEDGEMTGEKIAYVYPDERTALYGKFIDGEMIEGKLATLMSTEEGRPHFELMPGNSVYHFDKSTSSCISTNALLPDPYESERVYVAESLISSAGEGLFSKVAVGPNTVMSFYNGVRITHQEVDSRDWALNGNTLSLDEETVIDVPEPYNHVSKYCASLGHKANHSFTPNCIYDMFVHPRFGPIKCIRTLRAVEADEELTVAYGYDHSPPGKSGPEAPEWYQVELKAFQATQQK
As to the kind of experiment: Sinefungin Probe 1A competition FP assay with SET7/9. As to conditions: for IC50: read-out: IC50 for displacement of Sinefungin Probe 1A. It counts as binding. The procedure:
Methods: Carboxymethyl cellulose-purified SAM, SAH (Cayman Catalog #700145), and sinefungin were diluted in a semi-Log manner in FP buffer (Cayman Catalog #600028). Five microliters of these dilutions were added to the wells of a low-volume, black, 384-well plate (Nunc #264705). […] The assay was allowed to equilibrate at room temperature for 30 minutes in the dark. Fluorescence polarization was measured as above. The experiment was performed two independent times, each in duplicate.

Assay [2] concerns the target T1, SET7/9. As to the kind of experiment: SET7/9 SAM-Screener high-throughput FP assay, Sinefungin Probe 1A displacement. It counts as binding. As to conditions: SET7/9; sinefungin 50 μM; SAM.
Procedure: Methods: A collection of 14,400 compounds from the Maybridge HitFinder collection of compounds was assayed for the displacement of Sinefungin Probe 1A from SET7/9 in a high-throughput manner using the SET7/9 SAM-Screener FP assay Cayman Catalog Item #600490). Thirty microliters of assay buffer (50 mM Tris pH 8.0, 50 mM KCl, 5 mM CHAPS, 2 mM DTT) was added to every well of a black 384-well polystyrene microtiter plate (Thermo-Fisher 364576). To every well, excluding control wells, was added one microliter of a DMSO solution containing a test compound. Control wells received either 1 μl DMSO or 1 μl of a sinefungin solution. The final concentration of sinefungin control or test compounds in the assay was 50 μM or 10 μM, respectively. To every well of the plate was added 10 μl of a SET7/9 solution to give a final assay concentration of 30 nM. After a 15-minute incubation at ambient temperature, 10 μl of Sinefungin Probe 1A solution was added to every well to give a final assay concentration of 10 nM in a total assay volume of 50 μl Samples were analyzed using a Biotek Synergy H4 plate reader in fluorescence polarization mode after a 30-minute incubation at ambient temperature in the dark. Data were analyzed using GeneData (v. 9.01). […]
Assay [3] has as its target T1, SET7/9. As to the kind of experiment: Sinefungin Probe 1B displacement FP assay with SET7/9 (Epigenetics Screening Library profiling). The class given is binding. Particulars: SET7/9, FIG. 11B. The procedure: Profiling of a pre-production version of the Cayman Chemical Epigenetics Screening Library (Cayman Catalog Item #11076) against SET7/9 and GLP was performed in a similar manner using Sinefungin Probe 1B. For GLP, the enzyme concentration was raised to 500 nM to produce a robust signal:noise ratio. Data were analyzed in GraphPad Prism (v. 5.04) and/or GeneData (v. 9.01).
An analog of Sinefungin Probe 1A, Sinefungin Probe 1B, wherein the hexyl portion of the linker moiety is replaced with PEG3 and the Cal Fluor® Red 610 fluorophore moiety is replaced with the “Fluor585” (Texas Red)-derived fluorophore moiety, was tested for the ability to bind several methyltransferases, including SET7/9. […] Similar data have been observed for GLP and G9a.

Assay [4] concerns the target T1, SET7/9. As to the kind of experiment: Fluorescence polarization saturation binding of fluorescent probe to SET7/9. Particulars: FIG. 11A, FIG. 12. The method, then:
Methods: The experiment was performed once, with two replicate wells for all methyltransferases per condition. The sole exception to this is NSD2 (see details below). The assay was performed in a ½ area, black, 96-well plate (Corning #3686) in a final volume of 30 μL. Methyltransferases (Table 1) were serially diluted two-fold in FP buffer (Cayman Catalog #600028) and 15 μL of a given dilution were added per well to the assay plate. Fifteen microliters of sinefungin probe 1A (10 nM) were added to each well, giving a final sinefungin probe 1A concentration of 5 nM. This concentration of sinefungin probe 1A was chosen because it had at least a 10-fold increase in fluorescence (excitation max 575 nm/emission max 615 nm) over background (buffer). The mixture was incubated in the dark at room temperature for 30 minutes and its fluorescence polarization was read using a BioTek Synergy 4.
For orientation: Polarisation of emitted light reports the rotation of a fluorescent probe.

Where [5] appears, read: 30 nM SET7/9, 10 nM Sinefungin Probe 1A, FIG. 3.

Molecules are shown by their SMILES.

As for `Nc1ncnc2c1ncn2[C@@H]1O[C@H](CSCC[C@H](N)C(=O)O)[C@@H](O)[C@H]1O` [SAH, S-adenosylhomocysteine], on SET7/9 [1] (setting [5]), the “competition with probe binding” value is on record as “did not compete with probe binding at concentrations below 1 μM”.
As usually defined, the IC50 is the point on the concentration scale where inhibition reaches its midpoint. On to `C[S+](CC[C@H](N)C(=O)O)C[C@H]1O[C@@H](n2cnc3c(N)ncnc32)[C@H](O)[C@@H]1O` (stereo partly shown) [SAM, S-Adenosylmethionine, reference compound], for which, at SET7/9 [1] (setting [5]), the IC50 came out at 130 nM. The “inhibition of probe binding (controls)” value at SET7/9 [2] is recorded as “fully inhibits probe binding”.
By Ki is commonly meant the dissociation constant of the complex between target and ligand, obtained from inhibition or displacement. As for `Nc1ncnc2c1ncn2[C@@H]1O[C@H](C[C@@H](N)CC[C@H](N)C(=O)O)[C@@H](O)[C@H]1O` [sinefungin, Sinefungin], the Ki stood at 120 nM on SET7/9 [3] and 168 nM at SET7/9 [1] (SET7/9, read-out: Ki for displacement of Sinefungin Probe 1A). Moreover, on SET7/9 [1] (setting [5]), the half-inhibitory concentration (IC50) came out at 220 nM.
With `Nc1ncnc2c1ncn2[C@@H]1O[C@H](C[C@@H](N)CC[C@H](N)C(=O)O)[C@@H](OCc2cnnn2CCCCCCNC(=O)OC2CCN(C(=O)c3ccccc3C3=c4cc5c6c(c4Oc4c3cc3c7c4CCCN7CCC3)CCC[N+]=6CCC5)CC2)[C@H]1O` [Sinefungin Probe 1B], the “affinity for SET7/9 compared with the other sinefungin probes” value on SET7/9 [4] was “essentially identical affinities”.
